Each structure is given as a SMILES string. A value given as a limit tells only on which side of the number the result lay.

These results are taken from BindingDB's records for doi:10.7270/Q2VX0F3D (Burnham Center For Chemical Genomics, 2012).

In the test the target is T1, Corticotropin-releasing factor-binding protein (Homo sapiens, UniProt P24387).
T1 sequence (P24387 whole entry): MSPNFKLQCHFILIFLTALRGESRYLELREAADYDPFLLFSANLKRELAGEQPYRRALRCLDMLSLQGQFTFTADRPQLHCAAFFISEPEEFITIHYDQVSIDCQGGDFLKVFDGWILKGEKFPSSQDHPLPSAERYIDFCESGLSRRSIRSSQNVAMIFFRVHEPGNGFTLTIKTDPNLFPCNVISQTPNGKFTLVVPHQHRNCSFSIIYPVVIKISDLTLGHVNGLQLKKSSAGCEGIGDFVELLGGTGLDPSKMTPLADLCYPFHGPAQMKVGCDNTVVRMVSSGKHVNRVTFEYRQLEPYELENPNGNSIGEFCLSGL
Briefly: activators of CRF receptor 2 with binding protein – uHTS hits, confirmation (AID 602473).
In the case of `Cc1ccc(S(=O)(=O)N(CC(=O)NNC2=c3ccccc3=NC2=O)c2ccc(C)c(C)c2)cc1` [SMR000207608], the EC50 is greater than 53 µM.

With `Cc1ccc(CSC(=Nc2ccc(F)cc2)C(C#N)C#N)cc1` [SMR000217751], the concentration giving a half-maximal response (EC50) is greater than 53 µM.

As for `Cc1nn(-c2ccccc2)c(N2CCCC2)c1CN=Nc1ccc(S(N)(=O)=O)cc1[N+](=O)[O-]` [SMR000243538], the EC50 was greater than 53 µM.

Molecule `COc1ccc(C(=O)C2C(=O)C(=O)N(CCN(C)C)C2c2cccnc2)cc1C` (stereo not given) [SMR000287983] came in with an EC50 greater than 53 µM.

As for `COc1ccc(C2c3c(n(C)c(=O)n(C)c3=O)N=C3CC(C)(C)CC(=O)C32)cc1OC` (stereo not given) [SMR000291470], the concentration for a half-maximal effect (EC50) was greater than 53 µM.

For `O=C1C=Cc2cc(=C3C=CCC=N3)c(=O)oc2=C1CN1CCN(CCO)CC1` [SMR000298878], the EC50 was determined as 6.05 µM.

Molecule `O=c1nncc(N=NC=CCc2ccccc2)[nH]1` [SMR000413415] displayed a concentration for a half-maximal effect (EC50) greater than 53 µM.

For `Nc1ccccc1Sc1cc(O)n(-c2ccc3c(c2)OCO3)c1O` [SMR000459840], the EC50 was greater than 53 µM.

`CC1=NC(=O)NC(c2cccc3ccccc23)C1C(=O)OC(C)(C)C` (stereo not given) [SMR000543036] returned a half-maximal effective concentration (EC50) greater than 53 µM.

`COc1ccc(Cn2cc(O)n(-c3cccc(Cl)c3)c2=S)cc1OC` [SMR000564410]: the EC50 was greater than 53 µM.

For `Cc1cc(C)cc(NC(=O)c2ccc(-n3c(O)c4c(c3O)CCCC4)cc2)c1` [SMR000664971], the EC50 was greater than 53 µM.

As to `COc1cccc(C2C(C(=O)c3ccc(C)o3)C(=O)C(=O)N2CCN2CCOCC2)c1OC` (stereo not given) [SMR000665042], the concentration for a half-maximal effect (EC50) is greater than 53 µM.

`Nc1ccc2c(c1)C(N=O)c1ccccc1-2` (stereo not given) [SMR001570622] showed a concentration for a half-maximal effect (EC50) greater than 53 µM.

On to `CN(C)c1ccc(C(N=O)c2ccccc2)cc1` (stereo not given) [[4-(dimethylamino)phenyl]-phenylmethanone oxime], for which the EC50 is greater than 53 µM.

Take `N#CC(C(=O)COC(=O)c1ccccc1O)c1nc2ccccc2s1` (stereo not given) [[(3Z)-3-(3H-1,3-benzothiazol-2-ylidene)-3-cyano-2-oxidanylidene-propyl] 2-oxidanylbenzoate]: the EC50 was greater than 53 µM.

As for `O=NC(N1CCOCC1)P(=O)(N1CCOCC1)N1CCOCC1` (stereo not given) [bis(4-morpholinyl)phosphoryl-(4-morpholinyl)methanone oxime], the 50% effective concentration (EC50) is greater than 53 µM.

As to `CCOC(=O)C1CCCN(c2cc(O)n(-c3ccccc3)c2O)C1` (stereo not given) [ethyl 1-(2,5-dioxo-1-phenylpyrrolidin-3-yl)piperidine-3-carboxylate], the EC50 was greater than 53 µM.

`CCOC(=O)c1c(NC=C2C(=O)NC(=S)NC2=O)sc2c1CCC2` [ethyl 2-[(E)-(4,6-dioxo-2-sulfanylidene-1,3-diazinan-5-yl)methylideneamino]-5,6-dihydro-4H-cyclopenta[b]thiophene-3-carboxylate] had an EC50 greater than 53 µM.

`COC(=O)C1=C(C)NC(=O)C1=CNc1ccc(C(C)C)cc1` [methyl (4E)-2-methyl-5-oxidanylidene-4-[[(4-propan-2-ylphenyl)amino]methylidene]-1H-pyrrole-3-carboxylate] displayed an EC50 greater than 53 µM.

In the case of `COC(=O)Cc1sc(=O)[nH]c1Nc1ccc(OC)cc1` [methyl {4-[(4-methoxyphenyl)imino]-2-oxo-1,3-thiazolidin-5-yl}acetate], the EC50 is greater than 53 µM.

Usually EC50 stands for the concentration giving half of the maximal effect. A higher EC50 goes with weaker potency.
